This is an account of results in patent US20230263822A1, “MODULATION OF FACTOR 11 EXPRESSION” (Ionis Pharmaceuticals, Inc., priority 2008, published 2023).

One data set relates to blood coagulation. Put plainly: Sense-oligonucleotide antidote: aPTT (Example 23). The data set is classed as in vivo, BALB/c mice. Conditions: ISIS 404071 40 mg/kg s.c. twice a week for three weeks, ISIS 418026 90 mg/kg where given. The protocol:
The effect of the specific sense oligonucleotide to ISIS 404071 as an antidote was tested in BALB/c mice. In a first cohort, ISIS 404071 was administered subcutaneously to BALB/c mice twice a week for three weeks at a dose of 40 mg/kg. In a second cohort, ISIS 404057 was administered subcutaneously to BALB/c mice twice a week for three weeks at a dose of 40 mg/kg. The ISIS 404071 specific antidote, ISIS 418026 ([…]; complementary to ISIS 404071), incorporated herein as SEQ ID NO: 13, was administered to both cohorts subcutaneously in a single injection of 90 mg/kg 48 hours after the final treatment of ISIS 404071 or 404057. In a third cohort, ISIS 404071 was administered subcutaneously to BALB/c mice twice a week for three weeks at a dose of 40 mg/kg. Following the last treatment of ISIS 404071, mice were injected subcutaneously injected with PBS. In a fourth cohort, ISIS 404057 was administered subcutaneously to BALB/c mice twice a week for three weeks at a dose of 40 mg/kg. Following the last treatment of ISIS 404057, mice were injected subcutaneously injected with PBS. Following antidote administration, a set of 4 mice from each cohort were sacrificed at 12 hours, 1 day, 2 days, 3 days, 7 days, and 14 days. Whole liver was collected for RNA analysis and PPP was collected for aPTT analysis.

The subject of data set [1] is mesenteric vein thrombosis. Nature of the data set: Mesenteric vein thrombosis, intravital microscopy (Example 22). Format: in vivo. As to conditions: C57BL/6 mice, 50 mg/kg s.c. twice a week for three weeks. Here is the method: In a first cohort, ISIS 404071 was administered subcutaneously to C57BL/6 mice twice a week for three weeks at a dose of 50 mg/kg. In a second cohort, a control oligonucleotide, ISIS 405277 ([…]; antisense oligonucleotide for Factor 2), incorporated herein as SEQ ID NO: 12 was administered subcutaneously to C57Bl/6 mice twice a week for three weeks at a dose of 50 mg/kg.
Blood was collected from the retro-orbital venous plexus of naïve C57BL/6 mice by puncture and collected in polypropylene tubes containing 300 μl of heparin (30 U/ml). Platelet rich plasma (PRP) was obtained by centrifugation at 1000 rpm for 5 min. The PRP was transferred to fresh tubes containing 2 μl of Prostaglandin I2 (PGI2) (2 μg/ml) and incubated at 37° C. for 5 min. After centrifugation at 2600 rpm, pellets were resuspended in 1 ml modified Tyrode's-HEPES buffer (137 mM NaCl, 0.3 mM Na2HPO4, 2 mM KCl, 12 mM NaHCO3, 5 mM HEPES, 5 mM glucose, 0.35% BSA, pH 7.2) containing 2 μl of PGI2 and incubated at 37° C. for 5 min. The suspended pellet was centrifuged at 2600 rpm for 5 min. To remove PGI2, the washing step was repeated twice and platelets were fluorescently labeled with calcein AM 2.5 μg/mL (Molecular Probes, Eugene, Oreg.) for 10 min at room temperature.
Fluorescently-labeled platelets were injected intravenously in ISIS 404071 treated and control oligonucleotide treated C57BL/6 mice. […] The exposed mesentery was kept moist throughout the experiment by periodic superfusion with warmed (37° C.) PBS. The mesentery was transluminated with a 12V, 100 W, DC stabilized source. Veins were visualized using a Zeiss (Germany) Axiovert 135 inverted microscope (Objective 32X) connected to an SVHS video recorder (AG-6730; Panasonic, Tokyo, Japan) using a CCD video camera (Hamamatsu Photonic Systems, Hamamatsu City, Japan). Centerline erythrocyte velocity (Vrbc) was measured using an optical Doppler velocimeter (Microcirculation Research Institute, Texas A&M College of Medicine, College Station, Tex.). Venular shear rate (τ) was calculated based on Poiseuille's Law for a newtonian fluid, τ=8(Vmean/Dv), where Dv is the diameter of the venule and Vmean is estimated from the measured Vrbc using the empirical correlation Vmean=Vrbc/1.6.
Mesenteric vein thrombosis was performed two days after the last antisense oligonucleotide injection. Thrombosis was induced by applying Whatman paper soaked in a 10% FeCl3 solution for 5 minutes on the mesenteric vein. The vein was monitored for 40 minutes, or until occlusion. The elapsed time before the first thrombus 30-50 μm in diameter and the elapsed time before blood stopped flowing for 30 seconds were observed.

The subject of another data set is platelet factor-4 (PF-4). Put plainly: Thrombus formation by PF-4 real-time PCR, FeCl3 induced venous thrombosis model vs Apixaban (Example 14). Format: in vivo, BALB/c mice. As to conditions: for PF-4 in vena cava, percentage as compared to PBS controls (thrombus formation): + FeCl3. Here is the method: ISIS 404071 and Apixaban were evaluated in the FeCl3 induced VT mouse model. […] Two days after receiving the last dose of ISIS 404071, mice were anesthetized with 150 mg/kg ketamine mixed with 10 mg/kg xylazine administered by intraperitoneal injection. […] Twenty minutes after receiving Apixaban, mice were anesthetized with 150 mg/kg ketamine mixed with 10 mg/kg xylazine administered by intraperitoneal injection. […] Two days after the last dose of PBS, mice in both groups were anesthetized with 150 mg/kg ketamine mixed with 10 mg/kg xylazine administered by intraperitoneal injection. Thrombus formation was induced with FeCl3 in all of the mice except the first control group.
In mice undergoing FeCl3 treatment, thrombus formation was induced by applying a piece of filter paper (2×4 mm) pre-saturated with 10% FeCl3 solution directly on the vena cava. After 3 minutes of exposure, the filter paper was removed. Thirty minutes after the filter paper application, a fixed length of the vein containing the thrombus was dissected out for platelet analysis. Liver was collected for RNA analysis.
Real-time PCR quantification of platelet factor-4 (PF-4) was used to quantify platelets in the vena cava as a measure of thrombus formation. […] Results are presented as a percentage of PF-4 in ISIS 404071 or Apixaban treated mice, as compared to the two PBS-treated control groups.
(In general: In qPCR the cycle at which signal appears reflects the starting amount.)

Take “ISIS 404071: antisense oligonucleotide targeted to murine Factor 11 mRNA, TGGTAATCCACTTTCAGAGG, target start site 869 (chemistry not given here)”: the “aPTT INR” value is reported as 1.51 INR in the data set with blood coagulation (12 hours after antidote/PBS); 1.30 INR with blood coagulation (1 day after antidote/PBS); 1.35 INR in the data set with blood coagulation (2 day after antidote/PBS); 1.27 INR in the data set on blood coagulation (3 day after antidote/PBS); 1.18 INR with blood coagulation (7 day after antidote/PBS); 1.05 INR in the data set on blood coagulation (14 day after antidote/PBS). Also, the “occlusion of veins within 40 minutes after injury” value in data set [1] is “did not occlude”. Besides, the “time of occlusion (occlusive thrombi)” value in data set [1] (10% FeCl3 on mesenteric vein) amounted to 29.5 min. The “time of thrombus formation (30 μm in diameter)” value in data set [1] (10% FeCl3 on mesenteric vein) turned out to be 14.8 ± 1.7 min. Moreover, the “PF-4 in vena cava as measure of thrombus formation” value in the data set with platelet factor-4 (PF-4) (FeCl3 induced VT model, vs PBS control) is reported as “resulted in reduction of PF-4”. For the same substance, the “PF-4 in vena cava, percentage as compared to PBS controls (thrombus formation)” value in the data set on platelet factor-4 (PF-4) (ISIS 404071 1.25 mg/kg subcutaneously twice a week for 3 weeks) is given as 42%; in the data set on platelet factor-4 (PF-4) (ISIS 404071 5 mg/kg subcutaneously twice a week for 3 weeks) it was 60%; with platelet factor-4 (PF-4) (ISIS 404071 10 mg/kg subcutaneously twice a week for 3 weeks) it was 28%; with platelet factor-4 (PF-4) (ISIS 404071 25 mg/kg subcutaneously twice a week for 3 weeks), 14%; in the data set on platelet factor-4 (PF-4) (ISIS 404071 50 mg/kg subcutaneously twice a week for 3 weeks), 4%.
